Measurements from article PMC2677733 (International Journal of Biological Sciences, 2009).

Molecular target: T1, OlatOR1/OlatOR2 (Ostrinia latipennis, UniProt C1PHB5)
T1 sequence (C1PHB5 1-424): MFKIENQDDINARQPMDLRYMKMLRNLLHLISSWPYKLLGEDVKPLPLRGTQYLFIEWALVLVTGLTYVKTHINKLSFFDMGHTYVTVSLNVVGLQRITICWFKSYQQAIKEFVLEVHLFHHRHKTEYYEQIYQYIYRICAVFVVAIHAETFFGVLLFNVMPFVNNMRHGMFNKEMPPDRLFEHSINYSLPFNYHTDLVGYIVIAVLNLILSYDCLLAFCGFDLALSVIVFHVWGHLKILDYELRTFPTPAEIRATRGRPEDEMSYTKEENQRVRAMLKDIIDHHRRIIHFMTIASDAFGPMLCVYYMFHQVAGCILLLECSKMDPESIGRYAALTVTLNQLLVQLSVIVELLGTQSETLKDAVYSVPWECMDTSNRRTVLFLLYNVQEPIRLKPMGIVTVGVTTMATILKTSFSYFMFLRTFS
T1 sequence (C1PHA8 1-473 partner): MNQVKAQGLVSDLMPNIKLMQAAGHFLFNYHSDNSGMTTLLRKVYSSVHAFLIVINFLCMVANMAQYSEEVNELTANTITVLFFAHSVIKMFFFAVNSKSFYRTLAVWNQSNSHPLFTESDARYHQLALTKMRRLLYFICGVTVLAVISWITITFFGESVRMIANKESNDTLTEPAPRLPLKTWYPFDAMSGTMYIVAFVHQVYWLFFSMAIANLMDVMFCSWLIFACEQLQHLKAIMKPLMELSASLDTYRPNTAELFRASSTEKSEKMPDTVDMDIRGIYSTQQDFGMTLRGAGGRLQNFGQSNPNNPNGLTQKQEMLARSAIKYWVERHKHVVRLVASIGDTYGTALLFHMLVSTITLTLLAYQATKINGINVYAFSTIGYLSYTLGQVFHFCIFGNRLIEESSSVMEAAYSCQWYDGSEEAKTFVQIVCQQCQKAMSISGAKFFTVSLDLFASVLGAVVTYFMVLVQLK
Experiment: two-electrode voltage clamp, Xenopus oocytes
Type: cell-based
Conditions: agonist, inward current; -80 mV; pH 7.6; 10 µM

SMILES | two-electrode voltage clamp, Xenopus oocytes
CC/C=C/CCCCCCCCCCO [E11-14:OH, (E)-11-tetradecenol] | OscaOR1 and OlatOR1, strongly responded to E11-14:OH
CCCC/C=C\CCCCCCCCCCOC(C)=O [Z11-16:OAc] | OlatOR1/OlatOR2 cells were found to show exactly the same response pattern as OscaOR1/OscaOR2 cells
